What was measured:
[1] = test system: HeLa cells infected with scAAV2-EGFP; assay: Transduction efficiency of scAAV2-EGFP in HeLa cells (EGFP expression, fluorescent microscopy); conditions: for concentration giving maximal increase in transgene expression / maximal increase in transgene expression compared to when no essential metal element was added: HeLa, scAAV2-EGFP, 200 vgs per cell, 48 hours after infection; for maximal increase in transgene expression compared to when no essential metal element was added: at the concentration of maximal increase; for target blood concentration determined from the concentration of greatest improvement of AAV transduction efficiency in vitro: based on FIGS. 1H, 1F, 1C, 1I; for improvement of AAV transduction efficiency: cells infected with rAAV, metal alone or in combination (FIG. 2B)
Procedure: In an initial set of experiments, HeLa cells were infected with self-complementary AAV2 (scAAV2) comprising nucleic acid encoding EGFP (scAAV2-EGFP) at a multiplicity of infection of 200 viral genomes (vgs) per cell. Thereafter, various essential metal elements were added to the cell cultures at different concentrations. Transduction efficiency was measured 48 hours after infection, by evaluating the expression of EGFP using fluorescent microscopy. Images were analyzed using ImageJ software.

[2] = test system: Huh7 cells; assay: Zn2+-induced cytotoxicity in Huh7 cells (mock-transfected); assay type: cell-based, human
[3] = test system: Huh7 cells; assay: Transgene expression of rAAV2-mCherry in Huh7 cells with zinc; assay type: cell-based, human; conditions: 15 μg/ml of Zn2+
Source text: (§1) Therefore, targeting ZIP14-deficient HCC tumors would be ideal for Zn2+ infusions due to their tendency to prevent zinc uptake, and therefore, increase the level of environmental Zn2+. To test this hypothesis, Huh7 cells were either mock-transfected, or transfected with a recombinant plasmid containing a CMV promoter-driven ZIP14-EGFP fusion protein, and were transduced with scAAV2-mCherry vectors under identical conditions.

[4] = test system: CCK8 cells; assay: AAV2-mCherry transduction efficiency versus cell viability with varying zinc; assay type: cell-based; conditions: varying concentrations of zinc (FIG. 5)
Source text: FIG. 5 provides an overlap of AAV transduction efficiency data and cell viability data from experiments in which CCK8 cells were transduced with AAV2 comprising mCherry encoding nucleic acid and treated with varying concentrations of zinc. […] FIGS. 6, 7, and 8 show similar data for HEK293 cells, HeLa cells, and HepG2 cells.

[5] = test system: HepG2 cells; assay: Factor IX expression in HepG2 cells infected with AAV3-Factor IX (Western blot); assay type: cell-based; conditions: rAAV3-Factor IX, 20 μg/ml, 3h post infection
Procedure: HepG2 cells, which express factor IX to a lower degree compared to other cell types, were cultured. They were then either infected with rAAV3 particles carrying nucleic acid encoding Factor IX, or infected with rAAV3 particles carrying nucleic acid encoding Factor IX and treated with 20 μg/ml of ZnCl2. When level of Factor IX expressed in the cells was measured using Western blot analysis after the cells there harvest 3h post infection.

[6] = test system: HeLa cells; assay: Zn2+-induced cytotoxicity in HeLa cells; assay type: cell-based
[7] = test system: ZIP14 over-expressing Huh7 cells; assay: Zn2+ effects in Huh7 cells over-expressing ZIP14, transduced with scAAV2-mCherry; assay type: cell-based, human
Source text: The effect of metal ion (e.g., zinc) on the transduction efficiency of AAV vectors may be due to free floating zinc, because the increase in transduction occurs when the cell has taken up zinc to the point where extracellular accumulation occurs. […] ZIP14 is a metal ion transporter that primarily transports zinc into cells.
as §1

[8] = test system: Huh7 cells infected with scAAV3-EGFP; assay: Percentage of Huh7 cells transduced by scAAV3-EGFP (flow cytometry); assay type: cell-based, human; conditions: different concentrations, flow cytometry (FIG. 4)
Procedure: Huh7 cells were infected with self-complementary AAV3 (scAAV3) comprising nucleic acid encoding EGFP (scAAV3-EGFP). Thereafter, zinc chloride was added to the cell cultures at different concentrations. Transduction efficiency was measured by evaluating the expression of EGFP using flow cytometry.

Row | Compound | concentration giving maximal increase in transgene expression [1] | maximal increase in transgene expression compared to when no essential metal element was added [1] [fold] | target blood concentration determined from the concentration of greatest improvement of AAV transduction efficiency in vitro [1] [µg/mL] | improvement of AAV transduction efficiency [1] [fold] | concentrations found to be cytotoxic ([2]; Huh7 cells) | Zn2+-induced cytotoxicity ([2]; mock-treated Huh7 cells, final concentration of 20 μg/ml) | increase in the transgene expression [3] [fold] | rAAV transduction efficiency versus cell viability [4] | level of Factor IX expression compared to cells not treated with metal elements [5] | concentration inducing significant cytotoxicity [6] | zinc-induced improvement of rAAV transduction efficiency ([7]; Huh7 cells transfected with a ZIP14 gene) | Zn2+-induced cytotoxicity ([7]; ZIP14 over-expressing Huh7 cells, final concentration of 20 μg/ml) | percentage of cells transduced by the scAAV3-EGFP vector [8] | increase in transgene expression ([1]; HeLa cells, final concentration of 30 μg/ml) [fold]
1 | [Cl][Ni][Cl] [nickel chloride] | 20 µg/mL | ~3 | 200 | ~2 |  |  |  |  |  |  |  |  |  | 
2 | [Cl-].[Cl-].[Mg+2] [magnesium chloride] | approximately 100 μg/ml | ~2 | 100 |  |  |  |  |  |  |  |  |  |  | 
3 | [Cl-].[Cl-].[Zn+2] [zinc chloride] | 30 µg/mL | ~8 | 30 | ~8 | exceeding 20 μg/ml | not mock-treated Huh7 cells, evaded Zn2+-induced cytotoxicity | ~7 | drop in rAAV transduction efficiency correlates with cell viability | greater level of Factor IX expression | exceeding 30 μg/ml | reduction in the zinc-induced improvement of rAAV transduction efficiency | evaded Zn2+-induced cytotoxicity | increases with increasing concentration of zinc chloride | ~8
4 | [Cl][Co][Cl] [cobalt chloride] | 25 µg/mL | ~2 | 20 to 30 | ~2 |  |  |  |  |  |  |  |  |  | 

— patent US20210205382A1, “METHODS AND COMPOSITIONS FOR USING METAL ELEMENTS IN AAV GENE THERAPY” (priority 2018, published 2021)
